Assay results reported in PubChem BioAssay (NCI).
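48-hour exposure; five concentrations; linearly interpolated endpoints. At the GI50, growth is halved. TGI marks complete inhibition of growth.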

Experiments:
Assay in all cases: inhibition of tumour cell growth, NCI panel, 48 h
TK-10 renal = tested on: TK-10 renal
HCC-2998 colon = tested on: HCC-2998 colon
HOP-92 NSCLC = tested on: HOP-92 NSCLC
HT29 colon = tested on: HT29 colon
A549 NSCLC = tested on: A549 NSCLC
U251 CNS = tested on: U251 CNS
NCI-H460 lung = tested on: NCI-H460 lung
SK-OV-3 ovarian = tested on: SK-OV-3 ovarian
DU-145 prostate = tested on: DU-145 prostate
SR leukemia = tested on: SR leukemia

| SMILES | GI50 (TK-10 renal) | TGI (TK-10 renal) | GI50 (HCC-2998 colon) | TGI (HCC-2998 colon) | GI50 (HOP-92 NSCLC) | TGI (HOP-92 NSCLC) | GI50 (HT29 colon) | TGI (HT29 colon) | GI50 (A549 NSCLC) | TGI (A549 NSCLC) | GI50 (U251 CNS) | TGI (U251 CNS) | GI50 (NCI-H460 lung) | TGI (NCI-H460 lung) | GI50 (SK-OV-3 ovarian) | TGI (SK-OV-3 ovarian) | GI50 (DU-145 prostate) | TGI (DU-145 prostate) | GI50 (SR leukemia) | TGI (SR leukemia) |
| --- | --- | --- | --- | --- | --- | --- | --- | --- | --- | --- | --- | --- | --- | --- | --- | --- | --- | --- | --- | --- |
| COc1ccc(/C=C/c2nc(NCCCN(C)C)c3ccccc3n2)cc1 | 6.59 µM | 22 µM | 13.8 µM | 27.6 µM | 2.5 µM | 8.15 µM | 1.61 µM | 3.13 µM | 2.62 µM | 7.65 µM | 1.79 µM | 3.37 µM | 2.19 µM | 4.7 µM | 2.51 µM | 6.3 µM | 13.9 µM | 27 µM | 1.86 µM | 4.2 µM |
| N#Cc1cnc2cc(OC[C@@H](O)CO)c(NC(=O)CC3CSSC3)cc2c1Nc1ccc(OCc2cccc(F)c2)c(Cl)c1 | 0.772 µM | 1.51 µM | 0.164 µM | 0.506 µM | 0.919 µM | 2.06 µM | 0.225 µM | 0.759 µM | 0.842 µM | 1.72 µM | 0.777 µM | 1.59 µM | 0.104 µM | 0.261 µM | 0.567 µM | 1.27 µM | 0.131 µM | 0.398 µM | 0.0408 µM | 0.275 µM |
| CC(C)c1ccc(C(=O)Nc2sc3c(c2C#N)CCC(=O)C3)cc1 | 0.613 µM | 5.47 µM | 1.94 µM | > 37.4 µM | 0.607 µM | 2.4 µM | 0.465 µM | > 21.9 µM | 1.63 µM | > 100 µM | 0.338 µM | > 100 µM | 1.14 µM | > 35.9 µM | 2.39 µM | 8.15 µM | 4.26 µM | > 100 µM | 0.424 µM | > 100 µM |
| CC(C)(C)NCc1cc(C(C)(C)C)cc(-c2ccc(Cl)cc2)c1O | – | 26 µM | – | 29.6 µM | – | 28.3 µM | – | 53.2 µM | – | 32.4 µM | – | 24.1 µM | – | 34.8 µM | – | 31.5 µM | – | 24.7 µM | – | 40.4 µM |
| CCOc1cc2c(NCCCN(CCO)CCO)ncnc2c(OCC)c1OCC | – | > 100 µM | – | > 100 µM | – | > 88 µM | – | > 100 µM | – | > 100 µM | – | > 100 µM | – | > 100 µM | – | > 100 µM | – | > 100 µM | – | > 100 µM |
| Cc1nc2sc(C(=O)Nc3cccc4ccccc34)c(N)c2cc1C(=O)c1ccccc1 | > 50 µM | > 50 µM | 1.52 µM | > 50 µM | 6.82 µM | > 50 µM | 1.81 µM | > 50 µM | 0.403 µM | > 50 µM | 1.97 µM | > 50 µM | 0.727 µM | 6.32 µM | 1.28 µM | > 50 µM | 1.94 µM | > 50 µM | 0.632 µM | > 50 µM |
| Cn1c(=O)c(Oc2ccccc2F)cc2cnc(NC3CCOCC3)nc21 | > 25 µM | > 25 µM | > 25 µM | > 25 µM | 1.25 µM | 22.8 µM | > 25 µM | > 25 µM | > 25 µM | > 25 µM | > 25 µM | > 25 µM | > 25 µM | > 25 µM | > 25 µM | > 25 µM | > 25 µM | > 25 µM | > 25 µM | > 25 µM |
